Measured values from patent US8222420B2, “Nitrogen-containing compounds and harmful organism control agents” (Nippon Soda Co., Ltd., priority 2009, dated 2012).

Legend:
Aphis gossypii = experiment: Efficacy against Aphis gossypii (spray on infested cucumber plants); type: in vivo; conditions: 500 ppm emulsion sprayed on cucumber plants infested with nymphs; 25° C., humidity 65%; 5 days later
From the text: Cucumber plants planted in a no. 3 pot for which 10 days had elapsed since germination were inoculated with adult Aphis gossypii. The adult insects were removed after 1 day, and a chemical liquid diluted with water to a compound concentration of 500 ppm was sprayed onto the cucumber plants infested with nymphs laid by the adults in accordance with the emulsion formula indicated in the aforementioned Preparation Example 2. The cucumber plants were placed in a constant temperature chamber at a temperature of 25° C. and humidity of 65% and insect viability was investigated 5 days later followed by determination of insect mortality rate. The test was repeated twice.

[1] = tested on: Tetranychus urticae resistant to organic phosphorous agents; experiment: Efficacy against Tetranychus urticae (spray on kidney bean plants); type: in vivo; conditions: 500 ppm wettable powder sprayed on kidney bean plants with female adults; 25° C., humidity 65%; 3 days later
From the text: After inoculating the first true leaves of kidney bean plants planted in a no. 3 pot for which 7 to 10 days had elapsed since germination with 17 female adult Tetranychus urticae resistant to organic phosphorous agents, a chemical liquid diluted with water to a compound concentration of 500 ppm was sprayed onto the kidney bean plants in accordance with the formula of the wettable powder indicated in the aforementioned Preparation Example 1. The kidney bean plants were placed in a constant temperature chamber at a temperature of 25° C. and humidity of 65% and insect mortality rate was investigated 3 days later. The test was repeated twice.

With `Cc1nc(N(C)C)nc(OC(=O)N(C)C)c1C` [pirimicarb] the insect mortality rate (Aphis gossypii) was 9%.

Molecule `Cc1cc(Cl)ccc1N=CN(C)C` [chlordimeform] has an insect mortality rate [1] of 40%.
